Reference: PubChem BioAssay (NCI)
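Test compounds were applied to cells in 96-well plates for 48 hours at 5 doses. GI50 marks 50% less growth. TGI is the concentration that stops growth completely.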

Key:
Assay in all cases: growth of human tumour cells (NCI), 48 h
UO-31 renal = system: UO-31 renal
TK-10 renal = system: TK-10 renal
HCC-2998 colon = system: HCC-2998 colon
T-47D breast = system: T-47D breast
HL-60(TB) leukemia = system: HL-60(TB) leukemia
A498 renal = system: A498 renal
DU-145 prostate = system: DU-145 prostate
NCI-H226 lung = system: NCI-H226 lung
SK-MEL-28 melanoma = system: SK-MEL-28 melanoma
UACC-257 melanoma = system: UACC-257 melanoma

| SMILES | GI50 (UO-31 renal) [µM] | TGI (UO-31 renal) [µM] | GI50 (TK-10 renal) [µM] | TGI (TK-10 renal) [µM] | GI50 (HCC-2998 colon) [µM] | TGI (HCC-2998 colon) [µM] | GI50 (T-47D breast) [µM] | TGI (T-47D breast) [µM] | GI50 (HL-60(TB) leukemia) [µM] | TGI (HL-60(TB) leukemia) [µM] | GI50 (A498 renal) [µM] | TGI (A498 renal) [µM] | GI50 (DU-145 prostate) [µM] | TGI (DU-145 prostate) [µM] | GI50 (NCI-H226 lung) [µM] | TGI (NCI-H226 lung) [µM] | GI50 (SK-MEL-28 melanoma) [µM] | TGI (SK-MEL-28 melanoma) [µM] | GI50 (UACC-257 melanoma) [µM] | TGI (UACC-257 melanoma) [µM] |
| --- | --- | --- | --- | --- | --- | --- | --- | --- | --- | --- | --- | --- | --- | --- | --- | --- | --- | --- | --- | --- |
| CC(=O)c1cc(C(=O)c2ccc3c(c2)Sc2ccccc2N3)c2c(C)cccn12 | 0.925 | 98.4 | 4.73 | > 100 | 1.65 | > 100 | 0.314 | > 68.5 | 0.296 | 0.977 | 0.141 | 1.9 | 0.38 | > 34.8 | 1.95 | > 52.3 | 2.51 | > 100 | 2.39 | > 100 |
| Nc1ccccc1C#C/C=C\C#Cc1c(F)c(F)c(F)c(F)c1F | 14.6 | 28 | 20.1 | 40.7 | 19.4 | 37.6 | 23 | 61.6 | 28.8 | 57.1 | 25.5 | 55.8 | 24.7 | 79.9 | 11.3 | 26.7 | 17 | 38.4 | 17.9 | 38.6 |
| COc1ccc(C2C=C(c3ccc(Cl)cc3)N=C3SC=C(C)N32)c(Br)c1 (stereo not given) | 3.26 | 15.4 | 4.05 | 14.4 | 4.43 | 14.6 | 3.45 | 21.5 | 3.85 | 51.5 | 4.18 | 16.2 | 2.68 | 7.26 | 11.4 | > 100 | 5.11 | 17.4 | 4.42 | 18.8 |
| O=C(Nc1ccccc1O)c1ccc(NS(=O)(=O)c2cccc3cccnc23)cc1 | 0.73 | 4.14 | 0.704 | 3.45 | 1.59 | 5.23 | 0.559 | 4.16 | 1.03 | 12.9 | 0.208 | 1.62 | 1.27 | 9.55 | 2.36 | 7.27 | 0.834 | 4.91 | 0.571 | 5.25 |
| CN1CCN(Cc2ccc3c(NNC(=O)c4ccccc4)nc4cc(F)ccc4n23)CC1 | 0.0681 | 3.79 | 0.252 | > 92.5 | 0.526 | 49.6 | 0.593 | 22.8 | 0.335 | 1.91 | 0.658 | 8.81 | 0.663 | > 100 | 0.442 | 9.71 | 0.566 | 17.8 | 0.848 | 12.5 |
| Cc1c(C(N)=O)sc2c1c(=O)n(Cc1ccccc1)c1nnc(-c3ccc(Br)cc3)n21 | 1.4 | 11.7 | 3.33 | 16.3 | 1.91 | 14.6 | 3.38 | 18.9 | 4.42 | 38.8 | 2.3 | 12.7 | 2.32 | 14.9 | 2.46 | 9.82 | 4.09 | 17.1 | 3.14 | 11.8 |
| Clc1ccccc1C(Nc1ncccn1)Nc1ncccn1 | – | > 100 | – | > 100 | – | > 100 | – | > 100 | – | > 100 | – | > 100 | – | > 100 | – | > 100 | – | > 100 | – | > 100 |
| COc1ccc(C(CC(=O)c2ccccc2)C(C(=O)c2ccccc2)C(c2ccc(OC)cc2)C2C(=O)NC(=S)NC2=O)cc1 (stereo not given) | 7.32 | 26.1 | 18.7 | > 100 | 2.46 | 16.6 | 13.2 | > 100 | 20.1 | > 100 | 3.19 | 23.2 | 10.5 | 32 | 38.4 | > 100 | 16 | > 100 | 13.8 | 52.7 |
| COc1cccc2c1C(=O)OC2c1cccc2ccccc12 (stereo not given) | – | > 100 | – | > 100 | – | > 100 | – | > 100 | – | > 100 | – | > 100 | – | > 100 | – | > 100 | – | > 100 | – | > 100 |
| C#COc1cccc(Nc2ncnc3cc(NC(=O)[C@H](C)Cl)ccc23)c1 | 7.94 | > 62.5 | 23.6 | > 62.5 | 5.71 | > 62.5 | 19.3 | > 62.5 | 1.1 | 3.19 | 1.73 | 34.5 | 6.09 | > 62.5 | 24.6 | > 62.5 | 4.71 | > 62.5 | > 62.5 | > 62.5 |
| Cc1cn(-c2ccc(S(C)(=O)=O)cc2)c(-c2ccc(Cl)cc2)n1 | > 100 | > 100 | > 100 | > 100 | > 100 | > 100 | > 100 | > 100 | > 100 | > 100 | > 100 | > 100 | > 100 | > 100 | > 100 | > 100 | > 100 | > 100 | > 100 | > 100 |
| CC12CCC3c4cc(Br)c(O)c(Br)c4CCC3C1CCC2O (stereo not given) | – | 46.8 | – | 43.1 | – | 25.3 | – | 83.8 | – | 66.6 | – | 36.3 | – | > 100 | – | 34.5 | – | 34.9 | – | 35.8 |
| COc1cc(NCCN=C(N)NC(N)=NC(C)C)c2ncccc2c1 | > 100 | > 100 | 11.3 | 69.9 | 6.61 | 50.9 | 1.44 | 5.12 | 14.3 | 39.6 | > 58.1 | > 100 | 38.3 | > 100 | 39.7 | > 100 | 14.1 | > 83.8 | 11 | 32.5 |
| C=C(C)C(=O)O[C@@H]1C/C(C)=C\[C@H](OC(C)=O)C[C@](C)(O)/C=C2/OC(=O)C(COC(C)=O)=C21 | – | 3.26 | – | 3.7 | – | 1.64 | – | 22.1 | – | 0.0496 | – | > 20.8 | – | 7.13 | – | 6.17 | – | 0.762 | – | 3.62 |
| O=C(CC(=O)c1cccc(Cl)c1)c1cccc(Cl)c1 | 3.98 | > 100 | 4.12 | > 100 | 5.31 | > 100 | 2.53 | > 100 | 1.99 | > 100 | 5.07 | > 100 | 2.77 | > 100 | 2.88 | > 100 | 2.7 | > 100 | 5.99 | > 100 |
| c1ccc([As]=[As]c2ccccc2)cc1 (stereo not given) | 0.973 | 2.39 | 1.61 | 3.38 | 1.72 | 3.41 | 0.221 | 0.876 | 1.19 | 4.19 | 0.668 | 2.34 | 1.66 | 3.32 | 1.46 | 4.15 | 0.922 | 2.32 | 1.28 | 2.88 |
| COc1ccc(Cn2cc3c(c2-c2ccccc2)CCc2cnoc2-3)cc1N | 0.967 | > 100 | 0.626 | > 100 | 0.496 | > 100 | 3.86 | > 100 | 0.137 | 0.617 | 0.0638 | 0.64 | 0.21 | 1.27 | 2.24 | > 100 | 0.247 | > 100 | 10.2 | > 100 |
| CCOC(=O)c1ccc2c(c1)[n+](=O)c(C(C)=O)c(C(F)(F)F)n2[O-] | 1.49 | 3.15 | 1.39 | 3.25 | 1.05 | 2.45 | 1.29 | 3.06 | 1.44 | 3.08 | 1.33 | 3.16 | 1.57 | 2.96 | 1.8 | 3.93 | 2.87 | 10.1 | 1.76 | 3.5 |
